From PubChem BioAssay AID328 (DTP/NCI, 2004) come the findings set out here.

The assay concerns BDF1 mice, P388 leukemia ip, median survival T/C. Nature of the assay: NCI In Vivo Anticancer Drug Screen. Data for tumor model P388 Leukemia (intraperitoneal) in B6D2F1 (BDF1) mice. Conditions: endpoint: median survival time, higher = longer survival. The procedure, abridged: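 Steps: implant the tumour, treat one group with compound and another with vehicle, record survival, then divide treated by control.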

[1] abbreviates: dose: 100.0 mg/kg/injection, schedule: Q01DX009 (ip), vehicle: Klucel (hydroxypropylcellulose) (HPC).
The mark [2] stands for this setting: dose: 400.0 mg/kg/injection, schedule: Q01DX009 (ip), vehicle: Klucel (hydroxypropylcellulose) (HPC).
Where [3] appears, read: dose: 25.0 mg/kg/injection, schedule: Q01DX009 (ip), vehicle: Klucel (hydroxypropylcellulose) (HPC).
The mark [4] stands for this setting: dose: 50.0 mg/kg/injection, schedule: Q01DX009 (ip), vehicle: Klucel (hydroxypropylcellulose) (HPC).
[5] abbreviates: dose: 100.0 mg/kg/injection, schedule: Q04DX003 (ip), vehicle: saline.
[6] abbreviates: dose: 100.0 mg/kg/injection, schedule: Q04DX003 (ip), vehicle: saline with Tween-80.
The mark [7] stands for this setting: dose: 200.0 mg/kg/injection, schedule: Q04DX003 (ip), vehicle: saline with Tween-80.
Where [8] appears, read: dose: 400.0 mg/kg/injection, schedule: Q04DX003 (ip), vehicle: saline with Tween-80.
Where [9] appears, read: dose: 200.0 mg/kg/injection, schedule: Q01DX009 (ip), vehicle: saline.
Where [10] appears, read: dose: 100.0 mg/kg/injection, schedule: Q01DX009 (ip), vehicle: saline with Tween-80.
Setting [11] is: dose: 200.0 mg/kg/injection, schedule: Q04DX003 (ip), vehicle: saline.
[12] abbreviates: dose: 400.0 mg/kg/injection, schedule: Q04DX003 (ip), vehicle: saline.

Inconclusive results and toxic doses are left out.

Turning to `N#Cc1ccc(/C=C/C(=O)c2ccccc2)cc1`, the T/C was 91 % of control under setting [1]; 116 % of control (dose: 200.0 mg/kg/injection, schedule: Q01DX009 (ip), vehicle: Klucel (hydroxypropylcellulose) (HPC)); 107 % of control under setting [2].

Regarding `C=C1C(=O)OC2C3OC(C)(CCC(OC(C)=O)C3COC(C)=O)CC(OC(=O)/C(=C\C)COC(C)=O)C12` (stereo not given), the T/C by setting is: under setting [3], 106 % of control; under setting [4], 106 % of control; under setting [1], 118 % of control.

For the compound `CSc1ncnc2c1ncn2C1CCCO1` (stereo not given), the T/C was 95 % of control under setting [3]; 119 % of control under setting [4]; 109 % of control under setting [1]; 104 % of control under setting [5]; 87 % of control (dose: 150.0 mg/kg/injection, schedule: Q01DX009 (ip), vehicle: Klucel (hydroxypropylcellulose) (HPC)).

Regarding `CC1C(=O)CCC2(C)CCC(C)(C)CC12` (stereo not given), the T/C reads like this: under setting [6], 109 % of control; under setting [7], 109 % of control; under setting [8], 95 % of control.

Turning to `CCOC(=O)c1c(OC(C)=O)cc2c(c1OC(C)=O)-c1ccccc1CC2`, the T/C under setting [6] is 90 % of control, the T/C under setting [7] is 97 % of control and the T/C under setting [8] is 99 % of control.

As to `C=C1C(=O)O[C@@H]2CC(CO)=C([C@@H](C)CCCO)[C@@H](OC(=O)/C(C)=C\C)[C@H]12`, the T/C runs as follows: (dose: 2.0 mg/kg/injection, schedule: Q01DX009 (ip), vehicle: saline + alcohol) 123 % of control; (dose: 4.0 mg/kg/injection, schedule: Q01DX009 (ip), vehicle: saline + alcohol) 104 % of control; (dose: 8.0 mg/kg/injection, schedule: Q01DX009 (ip), vehicle: saline + alcohol) 123 % of control; (dose: 16.0 mg/kg/injection, schedule: Q01DX009 (ip), vehicle: saline + alcohol) 114 % of control.

Turning to `O=C(C[n+]1ccc2ccccc2c1)c1ccc(Br)cc1`, the T/C is 100 % of control (dose: 7.03 mg/kg/injection, schedule: Q04DX003 (ip), vehicle: saline); 114 % of control (dose: 12.5 mg/kg/injection, schedule: Q01DX009 (ip), vehicle: saline); 108 % of control (dose: 14.06 mg/kg/injection, schedule: Q04DX003 (ip), vehicle: saline); 109 % of control (dose: 25.0 mg/kg/injection, schedule: Q01DX009 (ip), vehicle: saline); 100 % of control (dose: 28.12 mg/kg/injection, schedule: Q04DX003 (ip), vehicle: saline); 119 % of control (dose: 50.0 mg/kg/injection, schedule: Q01DX009 (ip), vehicle: saline). Further, the T/C is, setting by setting: (dose: 56.25 mg/kg/injection, schedule: Q04DX003 (ip), vehicle: saline) 95 % of control; (dose: 75.0 mg/kg/injection, schedule: Q01DX009 (ip), vehicle: saline) 112 % of control.

Take `CC(C)C1=CC2=C[C@H](O)[C@H]3C(C)(C)CCC[C@]3(C)C2=C(O)C1=O`: the T/C runs as follows: (dose: 2.0 mg/kg/injection, schedule: Q01DX010 (ip), vehicle: carboxymethylcellulose (CMC)) 100 % of control; (dose: 2.2 mg/kg/injection, schedule: Q01DX010 (ip), vehicle: carboxymethylcellulose (CMC)) 112 % of control; (dose: 3.3 mg/kg/injection, schedule: Q01DX010 (ip), vehicle: carboxymethylcellulose (CMC)) 116 % of control; (dose: 5.0 mg/kg/injection, schedule: Q01DX010 (ip), vehicle: carboxymethylcellulose (CMC)) 120 % of control; (dose: 10.0 mg/kg/injection, schedule: Q01DX010 (ip), vehicle: carboxymethylcellulose (CMC)) 100 % of control; (dose: 10.0 mg/kg/injection, schedule: Q01DX010 (ip), vehicle: other) 115 % of control. In addition, the T/C (dose: 20.0 mg/kg/injection, schedule: Q01DX010 (ip), vehicle: carboxymethylcellulose (CMC)) is 110 % of control.

On to `O=C(C[n+]1cc(Br)cc2ccccc21)c1ccc(O)c(O)c1`, for which the T/C reads like this: under setting [4], 95 % of control; (dose: 176.0 mg/kg/injection, schedule: Q04DX003 (ip), vehicle: saline sonified) 118 % of control; under setting [9], 170 % of control; (dose: 200.0 mg/kg/injection, schedule: Q04DX003 (ip), vehicle: Klucel (hydroxypropylcellulose) (HPC)) 110 % of control; (dose: 200.0 mg/kg/injection, schedule: Q04DX003 (ip), vehicle: saline sonified) 122 % of control; (dose: 264.0 mg/kg/injection, schedule: Q01DX009 (ip), vehicle: saline with Tween-80) 113 % of control. The T/C is 115 % of control under setting [2]; 180 % of control (dose: 400.0 mg/kg/injection, schedule: Q01DX009 (ip), vehicle: saline); 118 % of control (dose: 400.0 mg/kg/injection, schedule: Q04DX003 (ip), vehicle: saline sonified).

Take `CCOC(=O)C(Cc1ccccc1Cl)(NC(C)=O)C(=O)OCC`: the T/C is, setting by setting: under setting [10], 100 % of control; under setting [6], 90 % of control; under setting [7], 100 % of control; (dose: 400.0 mg/kg/injection, schedule: Q01DX009 (ip), vehicle: saline with Tween-80) 90 % of control; under setting [8], 104 % of control.

Turning to `COC1CC(N=[N+]=[N-])C(OC(=O)c2ccccc2)C(C)O1` (stereo not given), the T/C under setting [10] was 94 % of control, the T/C under setting [6] was 101 % of control, the T/C under setting [7] was 106 % of control and the T/C under setting [8] is 106 % of control.

With `COc1cc2ccc3c(c2cc1OC)CN1CCc2cc4c(cc2C1C3)OCO4` (stereo not given), the T/C is 115 % of control (dose: 44.0 mg/kg/injection, schedule: Q01DX009 (ip), vehicle: saline with Tween-80); 120 % of control (dose: 50.0 mg/kg/injection, schedule: Q01DX009 (ip), vehicle: saline with Tween-80); 118 % of control under setting [5]; 112 % of control (dose: 200.0 mg/kg/injection, schedule: Q01DX009 (ip), vehicle: saline with Tween-80); 100 % of control under setting [11]; 100 % of control under setting [12].

In the case of `O=[N+]([O-])c1ccc(N/N=C\c2ccc3ccccc3n2)cc1`, the T/C reads like this: (dose: 100.0 mg/kg/injection, schedule: Q01DX009 (ip), vehicle: saline) 104 % of control; under setting [5], 118 % of control; under setting [9], 109 % of control; under setting [11], 104 % of control; under setting [12], 109 % of control.
